Source: PubChem BioAssay AID1963422 (Molecular Pharmacology Branch, DTP, NCI, 2024)

Test system: 463943-066-T-J2-PDC complex spheroid growth
Experiment: Anticancer human tumor 463943-066-T-J2-PDC patient-derived colon adenocarcinoma cell line growth inhibition [Asc]
Conditions: for IC50: curve of first compound; for viability, T/C: stronger effect = lower value
How it was run: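 Stromal components (HUVEC and hMSC) are co-assembled with the cancer cells into multicellular spheroids. Drugs are then added singly or paired, at concentrations falling by half-log increments from a clinically achievable maximum, capped at 10 microM without known Cmax.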

[1] = second compound 0.00316 µM, first compound 0.00316 µM
[2] = second compound 0.00316 µM, first compound 0.01 µM
[3] = second compound 0.00316 µM, first compound 0.0316 µM
[4] = second compound 0.00316 µM, first compound 0.1 µM
[5] = second compound 0.00316 µM, first compound 0.316 µM
[6] = second compound 0.00316 µM, first compound 1 µM
[7] = second compound 0.01 µM, first compound 0.00316 µM
[8] = second compound 0.01 µM, first compound 0.01 µM
[9] = second compound 0.01 µM, first compound 0.0316 µM
[10] = second compound 0.01 µM, first compound 0.1 µM
[11] = second compound 0.01 µM, first compound 0.316 µM
[12] = second compound 0.01 µM, first compound 1 µM
[13] = second compound 0.0316 µM, first compound 0.00316 µM
[14] = second compound 0.0316 µM, first compound 0.01 µM
[15] = second compound 0.0316 µM, first compound 0.0316 µM
[16] = second compound 0.0316 µM, first compound 0.1 µM
[17] = second compound 0.0316 µM, first compound 0.316 µM
[18] = second compound 0.0316 µM, first compound 1 µM
[19] = second compound 0.1 µM, first compound 0.00316 µM
[20] = second compound 0.1 µM, first compound 0.01 µM
[21] = second compound 0.1 µM, first compound 0.0316 µM
[22] = second compound 0.1 µM, first compound 0.1 µM
[23] = second compound 0.1 µM, first compound 0.316 µM
[24] = second compound 0.1 µM, first compound 1 µM
[25] = second compound 0.316 µM, first compound 0.00316 µM
[26] = second compound 0.316 µM, first compound 0.01 µM
[27] = second compound 0.316 µM, first compound 0.0316 µM
[28] = second compound 0.316 µM, first compound 0.1 µM
[29] = second compound 0.316 µM, first compound 0.316 µM
[30] = second compound 0.316 µM, first compound 1 µM
[31] = second compound 1 µM, first compound 0.00316 µM
[32] = second compound 1 µM, first compound 0.01 µM
[33] = second compound 1 µM, first compound 0.0316 µM
[34] = second compound 1 µM, first compound 0.1 µM
[35] = second compound 1 µM, first compound 0.316 µM
[36] = second compound 1 µM, first compound 1 µM
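Note: compound exposure lasted 7 days.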
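Throughout, for viability, T/C: 100% = DMSO vehicle control wells.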

CCN1CCN(Cc2ccc(Nc3ncc(F)c(-c4cc(F)c5nc(C)n(C(C)C)c5c4)n3)nc2)CC1 + CNC(C)C(=O)NC1CN(S(=O)(=O)c2cccc(S(=O)(=O)N3CCC4CCC(C(=O)NC(c5ccccc5)c5ccccc5)N4C(=O)C(NC(=O)C(C)NC)C3)c2)CCC2CCC(C(=O)NC(c3ccccc3)c3ccccc3)N2C1=O
IC50 (second compound 0.00316 µM): > 1000 nM
IC50 (second compound 0.01 µM): > 1000 nM
IC50 (second compound 0.0316 µM): > 1000 nM
IC50 (second compound 0.1 µM): > 1000 nM
IC50 (second compound 0.316 µM): > 1000 nM
IC50 (second compound 1 µM): > 1000 nM
viability, T/C [1]: 87.7%
viability, T/C [2]: 92.7%
viability, T/C [3]: 88%
viability, T/C [4]: 93.6%
viability, T/C [5]: 109%
viability, T/C [6]: 120%
viability, T/C [7]: 99.2%
viability, T/C [8]: 102%
viability, T/C [9]: 99.8%
viability, T/C [10]: 92.2%
viability, T/C [11]: 123%
viability, T/C [12]: 121%
viability, T/C [13]: 103%
viability, T/C [14]: 108%
viability, T/C [15]: 94.9%
viability, T/C [16]: 101%
viability, T/C [17]: 116%
viability, T/C [18]: 128%
viability, T/C [19]: 89%
viability, T/C [20]: 92.3%
viability, T/C [21]: 89.6%
viability, T/C [22]: 95.5%
viability, T/C [23]: 113%
viability, T/C [24]: 110%
viability, T/C [25]: 92.3%
viability, T/C [26]: 103%
viability, T/C [27]: 99.7%
viability, T/C [28]: 89.6%
viability, T/C [29]: 109%
viability, T/C [30]: 118%
viability, T/C [31]: 88.8%
viability, T/C [32]: 92.5%
viability, T/C [33]: 84%
viability, T/C [34]: 94%
viability, T/C [35]: 120%
viability, T/C [36]: 117%

NC(=O)C(=Cn1cnc(-c2cc(C(F)(F)F)cc(C(F)(F)F)c2)n1)c1cncnc1 + CNC(C)C(=O)NC1CN(S(=O)(=O)c2cccc(S(=O)(=O)N3CCC4CCC(C(=O)NC(c5ccccc5)c5ccccc5)N4C(=O)C(NC(=O)C(C)NC)C3)c2)CCC2CCC(C(=O)NC(c3ccccc3)c3ccccc3)N2C1=O
IC50 (second compound 0.00316 µM): > 300 nM
IC50 (second compound 0.01 µM): > 300 nM
IC50 (second compound 0.0316 µM): > 300 nM
IC50 (second compound 0.1 µM): > 300 nM
IC50 (second compound 0.316 µM): > 300 nM
IC50 (second compound 1 µM): > 300 nM
viability, T/C (second compound 0.00316 µM, first compound 0.000949 µM): 84.3%
viability, T/C (second compound 0.00316 µM, first compound 0.003 µM): 77.2%
viability, T/C (second compound 0.00316 µM, first compound 0.00949 µM): 77.4%
viability, T/C (second compound 0.00316 µM, first compound 0.03 µM): 78.7%
viability, T/C (second compound 0.00316 µM, first compound 0.0949 µM): 73.2%
viability, T/C (second compound 0.00316 µM, first compound 0.3 µM): 64.8%
viability, T/C (second compound 0.01 µM, first compound 0.000949 µM): 95.8%
viability, T/C (second compound 0.01 µM, first compound 0.003 µM): 87.6%
viability, T/C (second compound 0.01 µM, first compound 0.00949 µM): 80.8%
viability, T/C (second compound 0.01 µM, first compound 0.03 µM): 84.9%
viability, T/C (second compound 0.01 µM, first compound 0.0949 µM): 85.1%
viability, T/C (second compound 0.01 µM, first compound 0.3 µM): 65.3%
viability, T/C (second compound 0.0316 µM, first compound 0.000949 µM): 82.4%
viability, T/C (second compound 0.0316 µM, first compound 0.003 µM): 81.2%
viability, T/C (second compound 0.0316 µM, first compound 0.00949 µM): 80.4%
viability, T/C (second compound 0.0316 µM, first compound 0.03 µM): 88.3%
viability, T/C (second compound 0.0316 µM, first compound 0.0949 µM): 83.9%
viability, T/C (second compound 0.0316 µM, first compound 0.3 µM): 66.6%
viability, T/C (second compound 0.1 µM, first compound 0.000949 µM): 90.7%
viability, T/C (second compound 0.1 µM, first compound 0.003 µM): 82.6%
viability, T/C (second compound 0.1 µM, first compound 0.00949 µM): 82.5%
viability, T/C (second compound 0.1 µM, first compound 0.03 µM): 85%
viability, T/C (second compound 0.1 µM, first compound 0.0949 µM): 80.5%
viability, T/C (second compound 0.1 µM, first compound 0.3 µM): 67.3%
viability, T/C (second compound 0.316 µM, first compound 0.000949 µM): 85.2%
viability, T/C (second compound 0.316 µM, first compound 0.003 µM): 82.4%
viability, T/C (second compound 0.316 µM, first compound 0.00949 µM): 82.5%
viability, T/C (second compound 0.316 µM, first compound 0.03 µM): 78.9%
viability, T/C (second compound 0.316 µM, first compound 0.0949 µM): 80.3%
viability, T/C (second compound 0.316 µM, first compound 0.3 µM): 64.2%
viability, T/C (second compound 1 µM, first compound 0.000949 µM): 78.2%
viability, T/C (second compound 1 µM, first compound 0.003 µM): 91.9%
viability, T/C (second compound 1 µM, first compound 0.00949 µM): 78.5%
viability, T/C (second compound 1 µM, first compound 0.03 µM): 77.4%
viability, T/C (second compound 1 µM, first compound 0.0949 µM): 73.3%
viability, T/C (second compound 1 µM, first compound 0.3 µM): 58.5%

O=C(c1ccc(F)c(F)c1Nc1ccc(I)cc1F)N1CC(O)([C@@H]2CCCCN2)C1 + CNC(C)C(=O)NC1CN(S(=O)(=O)c2cccc(S(=O)(=O)N3CCC4CCC(C(=O)NC(c5ccccc5)c5ccccc5)N4C(=O)C(NC(=O)C(C)NC)C3)c2)CCC2CCC(C(=O)NC(c3ccccc3)c3ccccc3)N2C1=O
IC50 (second compound 0.00316 µM): 125 nM
IC50 (second compound 0.01 µM): 343 nM
IC50 (second compound 0.0316 µM): 304 nM
IC50 (second compound 0.1 µM): 173 nM
IC50 (second compound 0.316 µM): 229 nM
IC50 (second compound 1 µM): 238 nM
viability, T/C [1]: 88.3%
viability, T/C [2]: 76.9%
viability, T/C [3]: 59.4%
viability, T/C [4]: 58.4%
viability, T/C [5]: 40.4%
viability, T/C [6]: 20.8%
viability, T/C [7]: 94.6%
viability, T/C [8]: 88.3%
viability, T/C [9]: 71.8%
viability, T/C [10]: 65.9%
viability, T/C [11]: 51.3%
viability, T/C [12]: 36.9%
viability, T/C [13]: 102%
viability, T/C [14]: 81.6%
viability, T/C [15]: 69%
viability, T/C [16]: 67.2%
viability, T/C [17]: 55%
viability, T/C [18]: 32.6%
viability, T/C [19]: 85.1%
viability, T/C [20]: 82.9%
viability, T/C [21]: 64.4%
viability, T/C [22]: 56%
viability, T/C [23]: 46.8%
viability, T/C [24]: 24.7%
viability, T/C [25]: 91.1%
viability, T/C [26]: 79.2%
viability, T/C [27]: 66.5%
viability, T/C [28]: 60%
viability, T/C [29]: 49.9%
viability, T/C [30]: 31.8%
viability, T/C [31]: 82%
viability, T/C [32]: 68.1%
viability, T/C [33]: 66.3%
viability, T/C [34]: 61.4%
viability, T/C [35]: 47.4%
viability, T/C [36]: 33.4%
